According to patent US20160221948A1, “NITROGEN-CONTAINING SATURATED HETEROCYCLIC COMPOUND” (SUMITOMO CHEMICAL COMPANY, LIMITED, priority 2013, published 2016):

Biological target: human SSTR4 (Homo sapiens, UniProt P31391)
Test: Evaluation of agonist activities using human SSTR4-stably expressing cells (aequorin luminescence)
Assay type: cell-based
Set-up: expressed in transfected cells; host or cells: HEK293
Conditions: Tables 25 to 27
Protocol: Evaluation of Agonist Activities Using Cells that stably expressing human-derived SSTR4 (human SSTR4-stably expressing cells)
(1) Human SSTR4-Stably Expressing Cells
Human SSTR4-stably expressing cells were prepared, and cultured. Specifically, HEK293 cells, human kidney-derived cells, were used as host cells. By introducing pcDNA3.1 (cat. No. V79020, invitrogen, Carlsbad, Calif., USA) to which human SSTR gene was inserted into HEK293 cells, human SSTR4-stably expressing cell line was obtained. For selection, G418 (cat. No. 16513-84, Nacalai tesque, Japan) was used.
As the culture medium, D-MEM medium (cat. No. 11995, GIBCO, USA), containing 10% FBS and 200 μg/mL G418, was used, the culture was performed in a 225 cm^2 flask (cat. No. 11-006-010, Iwaki, Japan).
At about 80% confluence, the cells were harvested by treating with 20-fold diluted 0.25% Trypsin-EDTA (cat. No. 35554-64, Nacalai, tesque, Japan). The harvested cells were prepared at a reaction medium composed of Hanks Buffer (cat. No. 14065-056, invitrogen, Carlsbad, Calif., USA)/20 mM Hepes (cat. No. 15630-080, invitrogen, Carlsbad, Calif., USA), and 0.1% BSA (cat. No. A7906, Sigma Aldrich, USA) to 70000 cells/mL. Gα16 and apoaequorin were transiently introduced to the harvested cells, and the cells were seeded to a 384 well plate (cat. No. 781090, Greiner, Germany) at about 2000 cells/30 μL/well. On the next day of cell seeding, Coelenterazine H (cat. No. S2011, Promega, USA) was added to each well (10 μL/well) to make a final concentration of 0.5 μmol/L, and the plate was centrifuged. Then, the plate was left at room temperature for 4 hours in shaded state.
(2) Preparation of Test Compounds
DMSO solution of each test compound having 1000-fold larger concentration than the final concentration was prepared. The DMSO solutions were made to have 10-fold concentration than the final concentration with Hanks/20 mmol/L Hepes/0.1% BSA.
(3) Evaluation of Agonist Activity
For detection of luminescence signal due to SSTR4-stimulation, FDSS7000 (manufactured by Hamamatsu Photonics K.K.) was used. To plates having cells and the luminescence substrate, solutions of test compounds were added, then each luminescence signal was measured for 90 seconds, and each relative luminescence unit (RLU) was calculated. Based on luminescence signal from the wells to which a 1 μmol/L somatostatin solution was added taken as 100%, agonist activity of each test compound was evaluated.

Sequence of human SSTR4 (P31391 whole entry): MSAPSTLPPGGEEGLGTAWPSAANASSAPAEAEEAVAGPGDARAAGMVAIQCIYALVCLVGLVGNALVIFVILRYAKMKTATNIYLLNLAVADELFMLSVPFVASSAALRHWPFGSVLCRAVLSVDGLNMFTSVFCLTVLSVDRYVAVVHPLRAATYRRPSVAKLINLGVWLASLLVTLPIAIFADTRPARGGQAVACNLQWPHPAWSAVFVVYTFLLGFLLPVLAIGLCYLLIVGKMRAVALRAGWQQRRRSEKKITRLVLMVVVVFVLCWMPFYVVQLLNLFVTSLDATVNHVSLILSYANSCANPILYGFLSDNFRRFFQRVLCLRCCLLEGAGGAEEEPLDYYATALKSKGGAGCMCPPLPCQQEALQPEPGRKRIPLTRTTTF

SSTR4 agonist activity compared with other compounds	Compound
stronger SSTR4 agonist activity	Cc1ccc(C(C)(C)NC(=O)[C@H]2CCCN(C)C2)c(Cl)c1 [Example 37, (3S)—N-[2-(2-chloro-4-methylphenyl)propane-2-yl]-1-methylpiperidine-3-carboxamide]
stronger SSTR4 agonist activity	C[C@@H]1[C@@H](C(=O)NC(C)(C)c2cccc3ccccc23)CCCN1C (relative stereo) [Example 85]
stronger SSTR4 agonist activity	CCc1cc(Cl)ccc1C(C)(C)NC(=O)[C@H]1CCCN(C)C1 [Example 31, (3S)—N-[2-(4-chloro-2-ethylphenyl)propane-2-yl]-1-methylpiperidine-3-carboxamide]
stronger SSTR4 agonist activity	Cc1cccc(C(C)(C)NC(=O)C2CCCN(C)C2)c1Cl (stereo not shown) [Example 13]
stronger SSTR4 agonist activity	CC[C@@H]1CC[C@H](C(=O)NC(C)(C)c2cccc3ccccc23)CN1C (relative stereo) [Example 90]
stronger SSTR4 agonist activity	COc1cc(Cl)ccc1C(C)(C)NC(=O)[C@H]1CCCN(C)C1 [Example 30, (3S)—N-[2-(4-chloro-2-methoxylphenyl)propane-2-yl]-1-methylpiperidine-3-carboxamide]
stronger SSTR4 agonist activity	COc1cc(Cl)c(Cl)cc1C(C)(C)NC(=O)[C@H]1CCCN(C)C1 [Example 52]

Compound	SSTR4 agonist activity compared with other compounds
COc1ccccc1C(C)(C)NC(=O)[C@@H]1CN(C)CC[C@H]1c1ccccc1 (relative stereo) [Example 108]	stronger SSTR4 agonist activity

Same assay, conditions: luminescence signal; 1 μmol/L somatostatin taken as 100%

Compound	EC50 [nM]
CN1CCC(C(=O)NC(C)(C)c2ccccc2)C1 (stereo not shown) [Example 78]	> 100
C[C@@H]1CC[C@@H](C(=O)NC(C)(C)c2cccc3ccccc23)CN1C (relative stereo) [Example 82]	1.1
CN1CCC[C@H](C(=O)NC(C)(C)c2cccc(S(C)(=O)=O)c2)C1 [Example 62]	> 100
CN1CCC[C@H](C(=O)NC(C)(C)c2ccccn2)C1 [Example 56]	> 100
Cc1cc(Cl)ccc1C(C)(C)NC(=O)C1CCCN(C)C1 (stereo not shown) [Example 12, N-[2-(4-chloro-2-methylphenyl)propane-2-yl]-1-methylpiperidine-3-carboxamide]	9.7
COc1ccccc1C(C)(C)NC(=O)[C@@H]1CN(C)CC[C@H]1c1ccccc1 (relative stereo) [Example 108]	2.2
Cc1ccc(C(C)(C)NC(=O)[C@H]2CCCN(C)C2)c(Cl)c1 [Example 37, (3S)—N-[2-(2-chloro-4-methylphenyl)propane-2-yl]-1-methylpiperidine-3-carboxamide]	2.5
CN1CCC(C(=O)NC(C)(C)c2cccc3ccccc23)C1 (stereo not shown) [Example 77]	3
CN1CCCC(C(=O)NC2(c3cccc4ccccc34)CC(F)(F)C2)C1 (stereo not shown) [Example 4]	343
CN1CC(O)CC(C(=O)NC(C)(C)c2cccc3ccccc23)C1 (stereo not shown) [Example 83]	7.4
CN1CCC[C@H](C(=O)NC(C)(C)c2ccc(Cl)cc2)C1 [Example 42]	45.6
CCc1ccccc1C(C)(C)NC(=O)[C@H]1CCCN(C)C1 [Example 76, (3S)—N-[2-(2-ethylphenyl)propane-2-yl]-1-methylpiperidine-3-carboxamide]	1.9
CN1CCC[C@H](C(=O)NC(C)(C)c2ccccc2Br)C1 [Example 67, (3S)—N-[2-(2-bromophenyl)propane-2-yl]-1-methylpiperidine-3-carboxamide]	1.5
C[C@@H]1[C@@H](C(=O)NC(C)(C)c2cccc3ccccc23)CCCN1C (relative stereo) [Example 85]	1.5
CCc1cc(Cl)ccc1C(C)(C)NC(=O)[C@H]1CCCN(C)C1 [Example 31, (3S)—N-[2-(4-chloro-2-ethylphenyl)propane-2-yl]-1-methylpiperidine-3-carboxamide]	1.4
Cc1cccc(C2(NC(=O)C3CCCN(C)C3)CC2)c1C (stereo not shown) [Example 5, N-[1-(2,3-dimethylphenyl)cyclopropyl]-1-methylpiperidine-3-carboxamide]	34.1
CN1CCC[C@H](C(=O)NC(C)(C)c2ccccc2OC(F)(F)F)C1 [Example 60, (3S)—N-{2-[2-(trifluoromethoxy)phenyl]propane-2-yl}-1-methylpiperidine-3-carboxamide]	4.8
Cc1ccccc1C(C)(C)NC(=O)[C@H]1CCCN(C)C1 [Example 43, (3S)—N-[2-(2-methylphenyl)propane-2-yl]-1-methylpiperidine-3-carboxamide]	13
CN1CCC[C@H](C(=O)NC(C)(C)c2ccc(S(C)(=O)=O)cc2)C1 [Example 63]	> 100

Compound	EC50 [nM]
CN1CCCC(C(=O)NC(c2cccc3ccccc23)C(F)(F)F)C1 (stereo not shown) [Example 3]	12.6
CN1CCCC(C(=O)NC(C)(C)c2ccc(Cl)c(Cl)c2)C1 (stereo not shown) [Example 10]	24.2
Cc1cc(Cl)cc(C(C)(C)NC(=O)[C@H]2CCCN(C)C2)c1 [Example 29, (3S)—N-[2-(3-chloro-5-methylphenyl)propane-2-yl]-1-methylpiperidine-3-carboxamide]	5.3
CN1CCC[C@H](C(=O)NC(C)(C)c2ccsc2)C1 [Example 59]	> 100
Cc1cccc(C(C)(C)NC(=O)C2CCCN(C)C2)c1Cl (stereo not shown) [Example 13]	3.7
CN1CC[C@H](C(=O)NC(C)(C)c2ccccc2Cl)C1 [Example 79]	43.5
CN1CCC[C@H](C(=O)NC(C)(C)c2ccccc2OC(F)F)C1 [Example 66]	20.5
Cc1cccc(C(C)(C)NC(=O)[C@H]2CCCN(C)C2)c1C [Example 23, (3S)—N-[2-(2,3-dimethylphenyl)propane-2-yl]-1-methylpiperidine-3-carboxamide]	7.4
COc1cc(Cl)ccc1C(C)(C)NC(=O)[C@H]1CCCN(C)C1 [Example 30, (3S)—N-[2-(4-chloro-2-methoxylphenyl)propane-2-yl]-1-methylpiperidine-3-carboxamide]	1.5
Cc1ccc(Cl)c(C(C)(C)NC(=O)[C@H]2CCCN(C)C2)c1 [Example 38, (3S)—N-[2-(2-chloro-5-methylphenyl)propane-2-yl]-1-methylpiperidine-3-carboxamide]	5
CN1CCC[C@H](C(=O)NC(C)(C)c2ccccc2F)C1 [Example 1, (3S)—N-[2-(2-fluorophenyl)propane-2-yl]-1-methylpiperidine-3-carboxyamide]	62.7
CN1CCC[C@H](C(=O)NC(C)(C)c2cc(F)ccc2Cl)C1 [Example 73, (3S)—N-[2-(2-chloro-5-fluorohenyl)propane-2-yl]-1-methylpiperidine-3-carboxamide]	7.1
COc1cc(Cl)c(Cl)cc1C(C)(C)NC(=O)[C@H]1CCCN(C)C1 [Example 52]	1.2
CN1CCCC(C(=O)NC2(c3cc(Cl)cc(Cl)c3)CCOCC2)C1 (stereo not shown) [Example 9, N-[4-(3,5-dichlorophenyl)tetrahydro-2H-pyran-4-yl]-1-methylpiperidine-3-carboxamide]	43.3
Cc1cc(C)cc(C(C)(C)NC(=O)[C@H]2CCCN(C)C2)c1 [Example 25]	15.9
CN1CCC[C@H](C(=O)NC(C)(C)c2ccc(F)cc2Cl)C1 [Example 72, (3S)—N-[2-(2-chloro-4-fluorohenyl)propane-2-yl]-1-methylpiperidine-3-carboxamide]	2.8
CN1CCC[C@H](C(=O)NC(C)(C)c2ccc(Cl)cc2-c2ccccc2)C1 [Example 36]	> 100
CSc1ccccc1C(C)(C)NC(=O)[C@H]1CCCN(C)C1 [Example 65]	6.2

Further lines, results first:

EC50 [nM]	Compound
11.7	CC(C)N1CCC[C@H](C(=O)NC(C)(C)c2ccccc2Cl)C1 [Example 121]
61.8	CCC1CCC(C(=O)NC(C)(C)c2cccc(Cl)c2Cl)CN1C (stereo not shown) [Example 102]
33.6	CN1CC(C(=O)NC(C)(C)c2cccc(Cl)c2Cl)CC(F)(F)C1 (stereo not shown) [Example 101]
2	CN1CC[C@@H](c2ccccc2)[C@H](C(=O)NC(C)(C)c2cccc(Cl)c2Cl)C1 (relative stereo) [Example 106]
16.2	CC1CC(C(=O)NC(C)(C)c2cccc3ccccc23)CN(C)C1 (stereo not shown) [Example 86]
27.9	CC1CC(C(=O)NC(C)(C)c2cccc(Cl)c2Cl)CN(C)C1 (stereo not shown) [Example 100]
11.2	CC[C@@H]1CC[C@@H](C(=O)NC(C)(C)c2cccc3ccccc23)CN1C (relative stereo) [Example 89]
9.4	Cc1c(Cl)cccc1C(C)(C)NC(=O)[C@@H]1CC[C@H](C)N(C)C1 (relative stereo) [Example 87]
6.2	CCCN1CCC[C@H](C(=O)NC(C)(C)c2cccc3ccccc23)C1 [Example 114]
28.8	CN1CC(C(=O)NC(C)(C)c2cccc3ccccc23)CC(F)(F)C1 (stereo not shown) [Example 94]
> 100	CN1CCCC(C(=O)NC(C)(C)c2cccc(Cl)c2Cl)C1c1ccccc1 (stereo not shown) [Example 98]
> 100	COC[C@@H]1CC[C@H](C(=O)NC(C)(C)c2cccc3ccccc23)CN1C (relative stereo) [Example 105]
55.2	CCCCN1CCCC(C(=O)NC(C)(C)c2cccc3ccccc23)C1 (stereo not shown) [Example 118]
3.1	CC[C@@H]1CC[C@H](C(=O)NC(C)(C)c2cccc3ccccc23)CN1C (relative stereo) [Example 90]
3.2	CN1CC(F)CC(C(=O)NC(C)(C)c2cccc3ccccc23)C1 (stereo not shown) [Example 92]
6.9	CCCN1CCCC(C(=O)NC(C)(C)c2cccc3ccccc23)C1 (stereo not shown) [Example 117]
